Laboratory results published in ChEMBL document CHEMBL1201862, “PubChem BioAssay data set” (2004).
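Step 1: Grow cells in 96-well plates. Step 2: Expose to compound for 48 hours at 5 concentrations. Step 3: Interpolate endpoints linearly; if unreached, use highest concentration. Abbreviation: GI50, concentration required for 50% inhibition of growth.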 Calls of active or inactive are those of the source. Cut-off read from the data, not from the text of the source: active = GI50 up to about 1.1 µM and inactive = higher.

Experiments:
Assay in all cases: NCI anticancer screen, dose series, 48 h
[1] = system: CAKI-1
[2] = system: EKVX
[3] = system: HCT-116
[4] = system: HCT-15
[5] = system: HOP-62
[6] = system: HOP-92
[7] = system: IGROV-1
[8] = system: K562
[9] = system: KM-20L2
[10] = system: MOLT-4
[11] = system: Malme-3M
[12] = system: OVCAR-3
[13] = system: OVCAR-8
[14] = system: SF-268
[15] = system: SK-MEL-28
[16] = system: SK-OV-3
[17] = system: SN12C
[18] = system: SR
[19] = system: UO-31
[20] = system: BT-549

SMILES	GI50 [1]	GI50 [2]	GI50 [3]	GI50 [4] [µM]	GI50 [5]	GI50 [6]	GI50 [7]	GI50 [8]	GI50 [9]	GI50 [10]	GI50 [11]	GI50 [12]	GI50 [13]	GI50 [14]	GI50 [15]	GI50 [16]	GI50 [17]	GI50 [18]	GI50 [19]	GI50 [20]
O=c1[nH]c(=O)n(C2OC(COP(=O)(O)OP(=O)(O)OC3OC(CO)C(O)C(O)C3O)C(O)C2O)cc1F (stereo not given)	0.109 µM (active)	1.12 µM (inactive)	< 0.0129 µM (active)	0.0384	0.302 µM (active)	1.12 µM (active)	0.125 µM (active)	0.0302 µM (active)	0.101 µM (active)	0.0522 µM (active)	0.21 µM (active)	0.552 µM (active)	0.0966 µM (active)	0.0475 µM (active)	0.229 µM (active)	0.975 µM (active)	0.0809 µM (active)	0.0418 µM (active)	0.04 µM (active)	
CC1=C2C(=CC(C)(C)C2O)C(=O)C(C)(O)C12CC2 (stereo not given)	0.00552 µM (active)	0.0356 µM (active)	0.00325 µM (active)	0.00393	0.0119 µM (active)	0.0167 µM (active)	0.0153 µM (active)	0.00558 µM (active)	0.00521 µM (active)	0.00253 µM (active)	0.012 µM (active)	0.0112 µM (active)	0.00948 µM (active)	0.00658 µM (active)	0.0247 µM (active)	0.0262 µM (active)	0.0189 µM (active)	0.00249 µM (active)	0.0127 µM (active)	
O=C1C2=C(c3ccccc31)C(c1ccccc1)N1C(=O)CSC1=N2 (stereo not given)	49.8 µM (inactive)	> 55.7 µM (inactive)	> 56.4 µM (inactive)	40.3	83.8 µM (inactive)	32.6 µM (inactive)	> 57.4 µM (inactive)	37.2 µM (inactive)	91 µM (inactive)	38.8 µM (inactive)	71.9 µM (inactive)	51.2 µM (inactive)	> 71.8 µM (inactive)	58.1 µM (inactive)	63.5 µM (inactive)	> 70.6 µM (inactive)	> 53.6 µM (inactive)	26.4 µM (inactive)	34.8 µM (inactive)	24.5 µM (inactive)
CCOc1ccc2c(ccc(/C=C/c3cc(C)c4cccnc4c3O)[n+]2C)c1	4.29 µM (inactive)	0.925 µM (active)	0.317 µM (active)	3.66	1.14 µM (inactive)	0.881 µM (active)	0.675 µM (active)	0.495 µM (active)	0.527 µM (active)	0.158 µM (active)	1.94 µM (inactive)	0.129 µM (active)	0.301 µM (active)	0.736 µM (active)	0.792 µM (active)	1.8 µM (inactive)	0.274 µM (active)	0.153 µM (active)	8.09 µM (inactive)	1.52 µM (inactive)
CSc1nc2c(nc(N)n2C2OC(CO)C(O)C(O)C2O)c(=O)[nH]1 (stereo not given)	> 100 µM (inactive)	> 100 µM (inactive)	> 100 µM (inactive)		> 100 µM (inactive)	> 100 µM (inactive)	> 100 µM (inactive)	> 100 µM (inactive)	> 100 µM (inactive)	> 100 µM (inactive)	> 100 µM (inactive)	> 100 µM (inactive)	> 100 µM (inactive)	> 100 µM (inactive)	> 100 µM (inactive)	> 100 µM (inactive)	> 100 µM (inactive)	> 100 µM (inactive)	> 100 µM (inactive)	
CC(=O)O[C@H]1C(=O)O[C@@H]2C[C@H]3C(C)=CC(=O)[C@@H](O)[C@]3(C)[C@H]3[C@@]4(O)OC[C@]32[C@@H]1[C@@H](C)[C@H]4O	0.265 µM (active)	0.0453 µM (active)	0.0234 µM (active)	0.0759	0.0498 µM (active)	0.0329 µM (active)	0.0279 µM (active)	0.0266 µM (active)	0.0977 µM (active)	0.022 µM (active)	0.0232 µM (active)	0.0266 µM (active)	0.0444 µM (active)	0.0432 µM (active)	0.0281 µM (active)	0.524 µM (active)	0.0767 µM (active)		0.53 µM (active)	0.0312 µM (active)
COc1cc(/C=C2\NC(=O)C3Cc4c(OC)c(C)c(OC)c(OC)c4C2N3C)c(OC)c(C)c1OC (stereo not given)	> 100 µM (inactive)	> 100 µM (inactive)	> 100 µM (inactive)		> 100 µM (inactive)	> 100 µM (inactive)	> 100 µM (inactive)	> 100 µM (inactive)	> 100 µM (inactive)	44.2 µM (inactive)	> 100 µM (inactive)	> 100 µM (inactive)	> 100 µM (inactive)	> 100 µM (inactive)	> 100 µM (inactive)	> 100 µM (inactive)	> 100 µM (inactive)	> 100 µM (inactive)	> 100 µM (inactive)	
Nc1c(C(=O)Nc2ccccc2O)[n+]([O-])c2ccccc2[n+]1[O-]	> 100 µM (inactive)	> 100 µM (inactive)	31.7 µM (inactive)	30.5	> 100 µM (inactive)	> 100 µM (inactive)	81.5 µM (inactive)	41.9 µM (inactive)	> 100 µM (inactive)	45.8 µM (inactive)	83.9 µM (inactive)	29.9 µM (inactive)	64.1 µM (inactive)		79.4 µM (inactive)	> 100 µM (inactive)	63.2 µM (inactive)	44.3 µM (inactive)	37.5 µM (inactive)	
O=C(c1ccccc1)C(c1ccccc1)C1(O)C(=O)Nc2ccc(Br)cc21 (stereo not given)	99.1 µM (inactive)	68.2 µM (inactive)	37.9 µM (inactive)	60.1	59.3 µM (inactive)	73.5 µM (inactive)	56.4 µM (inactive)	18.9 µM (inactive)	> 100 µM (inactive)	23.6 µM (inactive)	76.6 µM (inactive)	45.6 µM (inactive)	52.8 µM (inactive)	72.6 µM (inactive)	46.1 µM (inactive)	> 100 µM (inactive)	35.8 µM (inactive)	18.7 µM (inactive)	63.8 µM (inactive)	
